Earlier results on five molecules are cited in patent US20080114067A1, “Composition for Recovery From or Prevention of Central Nervous System Fatigue” (priority 2005, published 2008).

The series concerns human placental cell. As to conditions: placental brush border tissue.

For the molecule `N[C@@H](CS)C(=O)O` [L-cysteine], the “suppression of uptake of tryptophan” value was “could be suppressed”.
With `CSCC[C@H](N)C(=O)O` [L-methionine], the “suppression of uptake of tryptophan” value is “could be suppressed”.
`CC(C)C[C@H](N)C(=O)O` [L-leucine]: the “suppression of uptake of tryptophan” value is listed as “could be suppressed”.
In the case of `CC(C)[C@H](N)C(=O)O` [L-valine], the “suppression of uptake of tryptophan” value was “could be suppressed”.
Consider `N[C@@H](Cc1ccccc1)C(=O)O` [L-phenylalanine], for which the “suppression of uptake of tryptophan” value is “could be suppressed”.
